Values after ≈ are worked out from the molar mass of the structure shown. Like-named read-outs stand apart in the source and are kept apart here.
Experiments:
[1] = test system: C. albicans; test: microbe, parasite or virus in culture; assay type: cell-based; details: Candida albicans
Source text: (§1) Candida spp. strains: 20 Candida spp. clinical isolates and one laboratory control strain (C. albicans SC5314) was used in the study. In the collection were included:
5 C. albicans isolates, two wild type strain (SC5314 and ATCC 36082), one echinocandin resistant isolate (M205) (6), and two fluconazole resistant clinical isolates (3795 and 3184) (7).

[2] = test system: C. tropicalis; test: microbe, parasite or virus in culture; assay type: cell-based; details: Candida tropicalis
Source text: as §1
2 C. tropicalis strains, one ATCC control strain (ATCC 750), and one echinocandin cross-resistant (T3) (11).

[3] = test system: C. guilliermondii; test: in vitro susceptibility CLSI M27A3, MIC; assay type: cell-based; details: Meyerozyma guilliermondii, strain ATCC6260, WT, Echinocandin cross-reduced susceptibility
Source text: (§2) (12): 1 C. orthopsilosis (981224), 1 C. metapsilosis (2006-113), C. parapsilosis (ATCC 22019 CLSI control), and C. guilliermondii (ATCC6260) (13).

[4] = test system: C. metapsilosis; test: in vitro susceptibility CLSI M27A3, MIC; assay type: cell-based; details: Lodderomyces metapsilosis, strain 2006-113, WT, Echinocandin cross-reduced susceptibility
Source text: as §2

[5] = test system: C. orthopsilosis; test: in vitro susceptibility CLSI M27A3, MIC; assay type: cell-based; details: Lodderomyces orthopsilosis, strain 981224, WT, Echinocandin cross-reduced susceptibility
Source text: as §2

[6] = test system: C. parapsilosis; test: in vitro susceptibility CLSI M27A3, MIC; assay type: cell-based; details: Lodderomyces parapsilosis, ATCC22019, strain ATCC 22019, WT, Echinocandin cross-reduced susceptibility
Source text: as §2

[7] = test system: clinical and laboratory fungal strains; test: in vitro susceptibility, summaries over groups of fungal strains; assay type: cell-based, Aspergillus spp., yeast
Source text: Aspergillus spp. […] Moreover, there were no MIC differences between susceptible and azole or echinocandin resistant strains (Table 1).
On average, yeast MICs were 8-fold lower than Aspergillus spp. MIC (Table 1). MICs obtained for Example 15 are compatible or better than MICs for conventional antifungal drugs.

[8] = test system: Af293 strain of A. fumigatus; test: XTT viability assay; assay type: cell-based, Aspergillus fumigatus
Description: This strain was selected because it is one of the best characterized strains and was the strain used for sequencing the A. fumigatus genome. XTT viability assay is based on the reduction of the tetrazolium salt (XTT) in the presence of menadione as an electron-coupling agent. There is a relationship between the number of viable fungi and the amount of XTT reduction (16).
The same methods previously described in performing the XTT assay (17) were used. Af293 conidia were plated on Sabouraud BHI slants with chloramphenicol and gentamicin (Becton Dickinson, Md.), incubated for 7 to 10 days at room temperature, and harvested by washing the slant with 10 ml of 0.05% Tween 20 in normal saline (NS). The conidial suspension then was passed through a 100-μm filter, counted on a hemacytometer, and diluted to 2.0×10^6 CFU/ml. Conidia then were diluted 1:50 in MOPS (morpholinepropanesulfonic acid)-buffered RPMI (pH 7.0). A stock solution of Example 15 dissolved in DMSO was used. […] Following the addition of drug-containing medium to each well, the conidial suspension (100 μl) was added (t=0 h). Control wells contained conidia, medium, and vehicle without drug. Blank wells consisted of medium only without conidia. […] One hundred microliters of the supernatant was transferred to a new plate, and the optical density at 450 nm (OD450) was determined by using a Labsystems Multiskan Plus plate reader. […]

[9] = test system: HB 101 E. coli; test: antibacterial cytotoxicity assay, gram(−) bacteria (OD600); assay type: cell-based; details: 48 hours, over a range of potencies, FIG. 13A
[10] = test system: HCT-116, DLD1, Caki1 and MDA-MB-231 tumors; test: various human tumour xenografts sc; assay type: in vivo, nude or SCID mice; details: tumor cells inoculated as a cell suspension
Description: (§3) In this study, the antitumor effect and toxicity of the three carbazoles against HCT-8 and HT29 colon cancer tumors were compared with treatment beginning when the tumor size reached 150-200 mg (about 7 days after tumor transplantation).

[11] = test system: human HCT-8 ileocecal adenocarcinoma xenografts
Description: as §3
Eight to twelve-week-old female athymic nude mice (nu/nu, body weight 22-25 g) were obtained from Harlan Sprague Dawley Inc. (Indianapolis, Ind.) and maintained at five mice/cage with water and food ad libitum according to an institutionally approved animal protocol.
Human ileocecal adenocarcinoma HCT-8 and colon adenocarcinoma HT-29 xenografts were used. The xenografts were initially established by injecting s.c 10^6 cultured cells and tumors were passed several generations by transplanting about 50 mg non-necrotic tumor (2-3 pieces) via a trocar from the passage tumors when the tumors reach to 1-1.5 g.
Treatment was initiated 7 days after tumor transplantation when the tumors reached 150-200 mg. The mice in the control group received the vehicle (0.2% hydroxypropylmethylcellulose) at 200 μl per 20 g mouse body weight (same as the treatment groups). Five mice were used for each experimental group with 10 tumors (1 tumor each in the left and right side flanks).
Two axes (mm) of tumor (L, longest axis; W, shortest axis) were measured with the aid of a Vernier caliper. Tumor weight (mg) was estimated using a formula: tumor weight=½ (L×W2). Tumor measurements were taken daily at the same time as drug treatment and 3-4 times a week of post therapy.
The kinetics of drug-induced toxicities (body weight loss, diarrhea, and lethality) were determined daily for the first 10 days after treatment and every two days thereafter.
Antitumor activity was assessed by maximum tumor growth inhibition (MTRI) which is the mean tumor weight of treated group (MTWTG) compared with untreated control group (MTWCG) at the same time point (MTRI=MTWTG−MTWCG)÷MTWCG×100%). The tumor doubling time (TDT) was defined as the mean time for the tumor to reach twice its initial weight. Tumor response was expressed as partial tumor response (PR) when tumor weight was reduced at least 50% of the initial tumor size and complete tumor response (CR) was defined as the inability to detect tumor upon palpation at the initial site of tumor appearance.

[12] = in vivo; details: nude, mouse, po
Description: Drug doses and schedule. […] Treatment was initiated 7 days after tumor transplantation when the tumors reached 150-200 mg. The mice in the control group received the vehicle (0.2% hydroxypropylmethylcellulose) at 200 μl per 20 g mouse body weight (same as the treatment groups). Five mice were used for each experimental group with 10 tumors (1 tumor each in the left and right side flanks).
Maximum Tolerated Dose (MTD) and toxicity evaluation. […] The kinetics of drug-induced toxicities (body weight loss, diarrhea, and lethality) were determined daily for the first 10 days after treatment and every two days thereafter.

[13] = test system: A. fumigatus; test: in vitro susceptibility CLSI M38A2, MIC; details: Aspergillus fumigatus
Source text: Eight Aspergillus spp. strains were used throughout the study. Six A. fumigatus, one A. flavus and one A. terreus also were used. The A. fumigatus group included two itraconazole-resistant strains (RIT13 and RIT5 strains) (1), one triazole cross-resistant strain (MUT10) (2, 3), one echinocandin cross-resistant strain (EMFRS678P) (4), and 2 wild type susceptible isolates (R21 and ATCC13073).

[14] = test system: Caki1 human renal cell carcinoma cells; test: Caki1 renal cell carcinoma xenograft efficacy test
Description: In an efficacy test using these three compounds, athymic nude mice were inoculated subcutaneously with a suspension of Caki1 human renal cell carcinoma cells into both rear flanks. When at least one tumor in a mouse reached 20-50 mm^3, treatment was commenced. […] As a positive control, one group was treated with 40 mg/kg Sunitinib, an approved drug for the treatment of renal cell carcinoma. Treatment was given for 4 weeks on a 5 day on/2 day off schedule. After treatment was completed, mice were monitored for an additional 4 weeks to determine how quickly tumor growth returned to normal.

## CCN(CC)CCn1c2ccc3c(c2c2c4c(ccc21)C(=O)CC4)CCC3=O [Example 15]
[1]; read-out: MIC* (48 hs), strain 3184, CDR1 overexpression, Fluconazole- resistant
  MIC: 0.66 µM (≈ 0.247 µg/mL)
[1]; strain ATCC36082, WT, Susceptible, read-out: MIC* (24 hs)
  MIC: 0.04 µM (≈ 0.015 µg/mL)
[1]; strain ATCC36082, WT, Susceptible, read-out: MIC* (48 hs)
  MIC: 0.04 µM (≈ 0.015 µg/mL)
[1]; strain SC5314, WT, Susceptible, read-out: MIC* (24 hs)
  MIC: 0.04 µM (≈ 0.015 µg/mL)
[1]; strain SC5314, WT, Susceptible, read-out: MIC* (48 hs)
  MIC: 0.08 µM (≈ 0.03 µg/mL)
[2]; strain ATCC750, WT, Susceptible, read-out: MIC* (24 hs)
  MIC: 0.08 µM (≈ 0.03 µg/mL)
[2]; strain ATCC750, WT, Susceptible, read-out: MIC* (48 hs)
  MIC: 0.16 µM (≈ 0.0599 µg/mL)
[2]; strain T3, Fks1pS645S/P, Echinocandin cross-resistant, read-out: MIC* (24 hs)
  MIC: 0.04 µM (≈ 0.015 µg/mL)
[2]; strain T3, Fks1pS645S/P, Echinocandin cross-resistant, read-out: MIC* (48 hs)
  MIC: 0.08 µM (≈ 0.03 µg/mL)
[3]; read-out: MIC* (24 hs)
  MIC: 0.08 µM (≈ 0.03 µg/mL)
[3]; read-out: MIC* (48 hs)
  MIC: 0.16 µM (≈ 0.0599 µg/mL)
[4]; read-out: MIC* (24 hs)
  MIC: 0.16 µM (≈ 0.0599 µg/mL)
[4]; read-out: MIC* (48 hs)
  MIC: 0.16 µM (≈ 0.0599 µg/mL)
[5]; read-out: MIC* (24 hs)
  MIC: 0.16 µM (≈ 0.0599 µg/mL)
[5]; read-out: MIC* (48 hs)
  MIC: 0.16 µM (≈ 0.0599 µg/mL)
[6]; read-out: MIC* (24 hs)
  MIC: 0.08 µM (≈ 0.03 µg/mL)
[6]; read-out: MIC* (48 hs)
  MIC: 0.08 µM (≈ 0.03 µg/mL)
[7]
  yeast MICs lower than Aspergillus spp. MIC, on average: 8 fold
[7]; A. flavus and A. terreus strains, read-out: 24 hs MIC Geom. Means
  MIC: 0.4 µM (≈ 0.15 µg/mL)
[8]; Aspergillus fumigatus, XTT assay at 24 h
  IC50: ~2500 nM
[8]; visual inspection of the wells
  concentration for complete suppression of fungal growth: greater than 12.5 μM
[9]
  antibacterial effect: antibacterial effect
[10]
  antitumor efficacy: antitumor efficacy
[11]; p.o. at MTD, 5 days on/2 days off per week, Example 15 5, Example 7 30, Example 13 25 mg/kg/d
  Antitumor Activity MTGI (%): 40.0 ± 18.6%
[11]; same
  Toxicity (%) lethality: 0%
[11]; same, complete tumor response
  CR (%): 0%
[11]; same, maximum weight loss of pretreatment body weight
  Toxicity (%) MWL: 10.0 ± 3.8%
[11]; same, partial tumor response
  PR (%): 0%
[11]; same, tumor doubling time
  Antitumor Activity TDT: 7.5 ± 3.5 days
[11]; text b677
  delay of tumor growth compared to the vehicle control (double time 4.8 days): 57%
[12]
  MTD at 4 weeks: 5 mg/kg/day
[13]; ATCC13073, read-out: MIC* (24 hs), strain ATCC13073, WT, Susceptible
  MIC: 2.56 µM (≈ 0.959 µg/mL)
[13]; ATCC13073, read-out: MIC* (48 hs), strain ATCC13073, WT, Susceptible
  MIC: 5.13 µM (≈ 1.92 µg/mL)
[13]; read-out: 24 hs MIC Geom. Means, A. fumigatus strains
  MIC: 1.59 µM (≈ 0.595 µg/mL)
[13]; read-out: MIC* (24 hs), strain EMFRS678P, Fks1pS678P, Echinocandin cross-resistant
  MIC: 1.28 µM (≈ 0.479 µg/mL)
[13]; read-out: MIC* (24 hs), strain MUT10, Cyp51Ap G138C, Triazole cross resistant
  MIC: 0.66 µM (≈ 0.247 µg/mL)
[13]; read-out: MIC* (24 hs), strain R21, WT, Susceptible
  MIC: 1.28 µM (≈ 0.479 µg/mL)
[13]; read-out: MIC* (24 hs), strain RIT5, Itraconazole resistant
  MIC: 0.66 µM (≈ 0.247 µg/mL)
[13]; read-out: MIC* (24 hs), strain RIT13, Itraconazole resistant
  MIC: 1.61 µM (≈ 0.603 µg/mL)
[13]; read-out: MIC* (48 hs), strain EMFRS678P, Fks1pS678P, Echinocandin cross-resistant
  MIC: 2.56 µM (≈ 0.959 µg/mL)
[13]; read-out: MIC* (48 hs), strain MUT10, Cyp51Ap G138C, Triazole cross resistant
  MIC: 1.28 µM (≈ 0.479 µg/mL)
[13]; read-out: MIC* (48 hs), strain R21, WT, Susceptible
  MIC: 2.56 µM (≈ 0.959 µg/mL)
[13]; read-out: MIC* (48 hs), strain RIT5, Itraconazole resistant
  MIC: 1.28 µM (≈ 0.479 µg/mL)
[13]; read-out: MIC* (48 hs), strain RIT13, Itraconazole resistant
  MIC: 1.28 µM (≈ 0.479 µg/mL)
[14]; 5 mg/kg oral, short-term
  weight loss: 10-15%
[14]; Day 24 (end of treatment), oral gavage 5 day on/2 day off, Example 7 30, Example 15 5, Example 13 25, Sunitinib 40 mg/kg
  tumor growth inhibition compared to the vehicle control: 50%
